Data: patent US20250289827A1, “MORPHIC FORMS OF A MUTANT BRAF DEGRADER AND METHODS OF MANUFACTURE THEREOF” (C4 THERAPEUTICS, INC., priority 2022, published 2025)
In brackets after ≈: the same amount, converted by molar mass.

What was measured:
[1] = Equilibration under a temperature cycle (XRPD); format: physicochemical
Procedure: The equilibration was executed with a stirring bar on a magnetic stirring plate at a rate of 300 rpm. The obtained suspensions were filtered through a 0.45 µm nylon membrane filter by centrifugation at 14,000 rpm. Solid parts (wet cakes) were investigated by XRPD.

[2] = Crystallization at room temperature by slow evaporation; format: physicochemical
Procedure: About 30 mg of Compound 1 Form A was dissolved in 0.2-10 mL of solvents. Obtained solutions were filtered through a 0.45 μm syringe membrane filter. […] Solid residues were investigated by XRPD.

[3] = Crystallization from hot saturated solutions by slow cooling; format: physicochemical; conditions: for Result: slow cooling
Procedure: About 50 mg of Compound 1 Form A was dissolved in the minimal amount of selected solvents at 50° C. Obtained solutions were filtered through a 0.45 μm syringe membrane filter. […] Samples without precipitates at 5° C. were further cooled to −20° C. Precipitates were collected by centrifugation filtration through a 0.45 μm nylon membrane filter at 14,000 rpm. Solid parts (wet cakes) were investigated by XRPD.
Obtained solutions were filtered through a 0.45 μm syringe membrane filter. […] Obtained suspensions were cooled to 5° C. at 0.1° C./min and kept at 5° C. for about 12 h. Precipitates were collected by centrifugation filtration through a 0.45 μm nylon membrane filter at 14,000 rpm. Solid parts (wet cakes) were investigated by XRPD.

[4] = Crystallization by vapor diffusion; format: physicochemical
Procedure: About 50 mg of Compound 1 Form A was dissolved in the minimal amount of selected solvents at ambient temperature (about 20-25° C.). Obtained solutions were filtered through a 0.45 μm syringe membrane filter. […] Then these 8 mL lid less vials were placed to 40 mL glass vials. To the 40 mL vials were added anti-solvents. Then these 40 mL vials were capped tightly and placed at ambient condition for up to 21 days. Precipitates were collected by centrifugation filtration through a 0.45 μm nylon membrane filter at 14,000 rpm. Solid parts (wet cakes) were investigated by XRPD.

[5] = Salt screening by re-slurry; format: physicochemical
BRAF^V600E = BRAF^V600E (Homo sapiens, UniProt P15056, V600E); experiment: BRAF V600E degradation in A375 cells; format: cell-based; conditions: 24 hr
BRAF^V600E, sequence (P15056 whole entry V600E): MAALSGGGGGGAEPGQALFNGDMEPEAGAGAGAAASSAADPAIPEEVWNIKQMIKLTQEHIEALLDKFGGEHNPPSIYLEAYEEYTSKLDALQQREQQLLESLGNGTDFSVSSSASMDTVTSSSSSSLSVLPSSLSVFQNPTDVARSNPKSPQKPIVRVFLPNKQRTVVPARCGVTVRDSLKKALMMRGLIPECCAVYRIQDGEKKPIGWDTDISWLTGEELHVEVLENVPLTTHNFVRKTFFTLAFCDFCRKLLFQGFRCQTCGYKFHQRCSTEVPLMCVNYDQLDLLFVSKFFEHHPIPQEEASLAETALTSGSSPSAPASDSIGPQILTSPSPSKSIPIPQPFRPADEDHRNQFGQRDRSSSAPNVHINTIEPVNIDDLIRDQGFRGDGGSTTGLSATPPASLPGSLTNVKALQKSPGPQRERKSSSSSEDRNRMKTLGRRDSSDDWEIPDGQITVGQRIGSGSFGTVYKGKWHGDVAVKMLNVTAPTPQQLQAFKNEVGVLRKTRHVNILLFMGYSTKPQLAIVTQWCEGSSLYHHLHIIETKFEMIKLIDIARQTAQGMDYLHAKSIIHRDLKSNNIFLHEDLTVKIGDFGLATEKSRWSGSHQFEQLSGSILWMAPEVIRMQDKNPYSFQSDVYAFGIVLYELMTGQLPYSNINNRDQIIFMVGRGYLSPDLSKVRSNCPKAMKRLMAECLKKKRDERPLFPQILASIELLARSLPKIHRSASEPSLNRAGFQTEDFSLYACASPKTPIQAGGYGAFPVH

ERK phosphorylation = experiment: Inhibition of ERK phosphorylation in A375 cells; format: cell-based; conditions: Homo sapiens, A-375, 24 hr
A375 cells = experiment: A375 cell growth inhibition; format: cell-based; conditions: Homo sapiens, A-375, 96 hr
[6] = Solubility data for Compound 1 drug substance; format: physicochemical
BCS / DCS classification = conditions: initial studies
Excerpt: Initial studies indicate Compound 1 is a Biopharmaceutics Classification System (BCS) Class II and a Developability Classification System (DCS) Class IIb molecule.

[7] = Acetone, temperature cycle 5° C. to 40° C.
[8] = Acetonitrile, temperature cycle 5° C. to 40° C.
[9] = DMF, temperature cycle 5° C. to 40° C.
[10] = Ethyl acetate, temperature cycle 5° C. to 40° C.
[11] = Isopropanol, temperature cycle 5° C. to 40° C.
[12] = Isopropyl acetate, temperature cycle 5° C. to 40° C.
[13] = Methanol, temperature cycle 5° C. to 40° C.
[14] = THF/heptane (v:v = 1:1), temperature cycle 5° C. to 40° C.
[15] = Toluene, temperature cycle 5° C. to 40° C.
[16] = temperature cycle, Acetone/water (v:v = 86:14) a.w. = 0.6
[17] = temperature cycle, Acetonitrile/water (v:v = 96:4) a.w. = 0.65
[18] = temperature cycle, DCM/methanol (v:v = 1:1)
[19] = temperature cycle, DMF/water (v:v = 30:70) a.w. = 0.9
[20] = temperature cycle, DMF/water (v:v = 73:27) a.w. = 0.6
[21] = temperature cycle, DMSO/water (v:v = 23:77) a.w. = 0.9
[22] = temperature cycle, DMSO/water (v:v = 57:43) a.w. = 0.6
[23] = temperature cycle, Methanol/water (v:v = 69:31) a.w. = 0.6
[24] = temperature cycle, THF/water (v:v = 82:18) a.w. = 0.9
[25] = temperature cycle, THF/water (v:v = 92:8) a.w. = 0.6

CCN(C)S(=O)(=O)Nc1ccc(F)c(Oc2ccc3ncn([C@H]4COC5(CCN(C(=O)CC6(O)CCN(c7cc8c(cc7F)c(N7CCC(=O)NC7=O)nn8C)CC6)CC5)C4)c(=O)c3c2)c1C#N [Compound 1 Form A]
Comments ([1]; 1,4-Dioxane/heptane (v:v = 1:1), temperature cycle 5° C. to 40° C.): Sticky material | XRPD (solid form after equilibration) ([1]; 2-MeTHF, temperature cycle 5° C. to 40° C., about 20 cycles): Form C (about 20 | Comments ([1]; 2-MeTHF, temperature cycle 5° C. to 40° C., after about 8 more cycles): Form C converted | Comments [1, 7]: Low crystallinity | XRPD (solid form after equilibration) [1, 7]: Form B | Comments (crystallinity) [1, 8]: Medium | XRPD (solid form after equilibration) [1, 8]: Form B | Comments ([1]; DCM/heptane (v:v = 1:1), temperature cycle 5° C. to 40° C.): Sticky material | Comments [1, 9]: Clear solution | Comments: concentration of clear solution [1, 9]: (About 500 mg/mL) | XRPD (solid form after equilibration) ([1]; Ethanol, temperature cycle 5° C. to 40° C.): Almost amorphous | Comments [1, 10]: Low crystallinity | XRPD (solid form after equilibration) [1, 10]: Form B | Comments [1, 11]: Low crystallinity | XRPD (solid form after equilibration) [1, 11]: Form A | Comments [1, 12]: Low crystallinity | XRPD (solid form after equilibration) [1, 12]: Form A | XRPD (solid form after equilibration) ([1]; MTBE, temperature cycle 5° C. to 40° C.): Almost amorphous | Comments [1, 13]: Low crystallinity | XRPD (solid form after equilibration) [1, 13]: Form B | XRPD (solid form after equilibration) ([1]; Methyl ethyl ketone, temperature cycle 5° C. to 40° C.): Almost amorphous | Comments [1, 14]: Low crystallinity | XRPD (solid form after equilibration) [1, 14]: Form B | Comments [1, 15]: Low crystallinity | XRPD (solid form after equilibration) [1, 15]: Form A | Comments ([1]; temperature cycle, Acetone/water (v:v = 36:64) a.w. = 0.9): Sticky material | Comments [1, 16]: Clear solution | Comments: concentration of clear solution [1, 16]: (About 500 mg/mL) | Comments ([1]; temperature cycle, Acetonitrile/water (v:v = 42:58) a.w. = 0.9): Sticky material | Comments [1, 17]: Medium crystallinity | XRPD [1, 17]: Form B** | Comments [1, 18]: Clear solution | Comments: concentration of clear solution [1, 18]: (About 500 mg/mL) | Comments [1, 19]: Low crystallinity | XRPD [1, 19]: Form B | Comments [1, 20]: Medium crystallinity | XRPD [1, 20]: Form B | Comments [1, 21]: Low crystallinity | XRPD [1, 21]: Form A | Comments [1, 22]: Low crystallinity | XRPD [1, 22]: Form A | Comments [1, 23]: Low crystallinity | XRPD [1, 23]: Form B | Comments [1, 24]: Clear solution | Comments: concentration of clear solution [1, 24]: (About 500 mg/mL) | Comments [1, 25]: Clear solution | Comments: concentration of clear solution [1, 25]: (About 500 mg/mL) | Comments ([2]; 1,4-Dioxane): Glassy material | Comments ([2]; Acetone): Glassy material | XRPD ([2]; Acetonitrile): Amorphous form | XRPD ([2]; DCM): Almost amorphous form | XRPD ([2]; DCM/methanol (v:v = 1:1)): Almost amorphous form | XRPD ([2]; Ethyl acetate): Amorphous form | XRPD ([2]; Methanol): Almost amorphous form | Comments ([2]; Methyl ethyl ketone): Glassy material | Comments ([2]; THF): Glassy material | XRPD ([3]; slow cooling with Form B seeds, Acetone): Form B | Result ([3]; Acetone/water (v:v = 1:1)): Sticky material | Result ([3]; Acetone, placed at −20° C. for 11 days): for 11 days: clear solution | Result ([3]; Acetonitrile/water (v:v = 1:1), placed at −20° C. for 11 days): for 11 days: clear solution | Result ([3]; Acetonitrile, placed at −20° C. for 11 days): for 11 days: clear solution | Result ([3]; DCM): Sticky material | Result ([3]; Ethanol, placed at −20° C. for 10 days): for 10 days: few solids | Result ([3]; Ethyl acetate, placed at −20° C. for 11 days): for 11 days: clear solution | Result ([3]; Methyl ethyl ketone, placed at −20° C. for 11 days): for 11 days: clear solution | Result ([3]; THF): Oil material | Result ([3]; THF/water (v:v = 1:1), placed at −20° C. for 11 days): for 11 days: clear solution | Results ([4]; 2-MeTHF (8.0) / MTBE (32.0) mL): Few solids | Results ([4]; Acetone (2.5) / MTBE (10.0) mL): Oil material | Results ([4]; Acetonitrile (3.0) / MTBE (12.0) mL): Oil material | Results ([4]; DMSO (0.2) / Ethanol (0.8) mL): Oil material | Re-slurry result ([5]; Ca(OH)2, Ethyl Acetate): Almost amorphous | Re-slurry result ([5]; Choline, Ethyl Acetate): Sticky material | Re-slurry result ([5]; Choline, MTBE): Sticky material | Re-slurry result ([5]; Choline, Toluene): Sticky material | Re-slurry result ([5]; Methylglucamine, Ethyl Acetate): Form A

CCN(C)S(=O)(=O)Nc1ccc(F)c(Oc2ccc3ncn([C@H]4COC5(CCN(C(=O)CC6(O)CCN(c7cc8c(cc7F)c(N7CCC(=O)NC7=O)nn8C)CC6)CC5)C4)c(=O)c3c2)c1C#N [Compound 1, (3R)-3-[6-[2-cyano-3-[[ethyl(methyl)sulfamoyl]amino]-6-fluorophenoxy]-4-oxoquinazolin-3-yl]-8-[2-[1-[3-(2,4-dioxo-1,3-diazinan-1-yl)-5-fluoro-1-methylindazol-6-yl]-4-hydroxypiperidin-4-yl]acetyl]-1-oxa-8-azaspiro[4.5]decane]
BRAF protein degraded (BRAF^V600E): 74% | DC50 (BRAF^V600E): 14 nM | IC50 (ERK phosphorylation): 11 nM | GI50 (A375 cells): 94 nM | solubility ([6]; FaSSIF, pH 6.48, fassif): 5840 µg/mL (≈ 6.1 mM) | solubility ([6]; FeSSIF, pH 4.86, fessif): 1350 µg/mL (≈ 1.41 mM) | solubility ([6]; SGF, pH 1.74, simulated gastric fluid): 6580 µg/mL (≈ 6.87 mM) | solubility ([6]; aqueous buffer, 50 mM pH 6.8 phosphate buffer solution, pH 6.76): 1530 µg/mL (≈ 1.6 mM) | solubility ([6]; aqueous buffer, 50 mM pH 7.4 phosphate buffer solution, pH 7.40): 8790 µg/mL (≈ 9.18 mM) | solubility ([6]; aqueous buffer, 100 mM pH 3.0 citrate buffer solution, pH 3.02): 2090 µg/mL (≈ 2.18 mM) | solubility ([6]; aqueous buffer, 100 mM pH 4.5 citrate buffer solution, pH 4.53): 3160 µg/mL (≈ 3.3 mM) | solubility ([6]; aqueous buffer, pH 9.0 NaOH solution, pH 8.55): 21600 µg/mL (≈ 22.5 mM) | solubility ([6]; pH 8.9, Purified water, pH 8.90): 42400 µg/mL (≈ 44.3 mM) | solubility ([6]; simulated gastric fluid, pH 1.2 HCl/KCl solution, pH 1.17): 23000 µg/mL (≈ 24 mM) | solubility ([6]; simulated gastric fluid, pH 2.0 HCl/KCl solution, pH 1.95): 4350 µg/mL (≈ 4.54 mM) | Biopharmaceutics Classification System (BCS) class (BCS / DCS classification): Class II | Developability Classification System (DCS) class (BCS / DCS classification): Class IIb
